From patent US20220127298A1, “THERMOSPOROTHRIX HAZAKENSIS-DERIVED ANTIBACTERIALLY ACTIVE SUBSTANCE” (KENNAN EISEI KOGYO CO., LTD., priority 2019, published 2022)

How the values were obtained:
[1] = test system: Geobacillus stearothermophilus ATCC 7953; assay: Heat resistance test B (storage), antibacterial activity as index; type: cell-based; details: FIG. 4-3
Procedure: (§1) Examples of a typical test for measuring the stability of a compound include pH stability test, as well as heat resistance test, and storage test. This information is also regarded as important in evaluating the compound as described above. Using the sample of HK-1 prepared in the above “3. Antibacterial activity test in changing pH”, experiments were carried out to examine whether the compound is stable or not using G. stearothermophilus and B. subtilis guided by the antibacterial activity as the index.
(§2) One (1) mL each of two samples prepared in the above “3. Antibacterial activity test in changing pH” was dispensed into two 1-mL micro tubes. The openings of total four tubes were closed hermetically with parafilm, and each one is shielded with an aluminum foil, and stored in a freezer set at −28° C., or an incubator set at 28° C. and 50° C. Each sample was assayed 1, 3, 6, 12, and 24 days after the initiation of the storage using the culture medium for assaying antibacterial activity prepared in “3. Antibacterial activity test in changing pH” above.

[2] = test system: Bacillus subtilis NBRC 3134^T; assay: as above; type: cell-based; details: FIG. 4-2
Procedure: as §1, §2

[3] = test system: Escherichia coli NBRC 102203^T; assay: Antibacterial spectrum test, paper disk assay; type: cell-based; details: 50 μL of 1000 γ solution in methanol, LB agar, 37° C., 18 hours
Procedure: (§3) The antibacterial activity of HK-1 was assayed using a paper disk against the following bacterial bodies. A piece of ice was taken out of a glycerol stock of G. stearothermophilus stored at -80° C. and […] inoculated on the LB agar culture medium (see Example 1) with a toothpick. This was incubated at 60° C. for 18 hours. After the incubation, 1⁄2 platinum loop of the culture was harvested and suspended in 500 μL of sterile water. The bacterial suspension was diluted 10-fold with sterile water. Onto a LB agar culture medium, 100 μL of the diluted suspension was dropped and spread until it was dried up. A piece of paper disk was placed on a filter paper, onto which 50 μL of a HK-1 solution adjusted to 1000 γ with methanol was dropped and dried. Then the disk was placed on the agar culture medium coated with the bacterial body. After incubation at 60° C. for 18 hours, the diameter of the inhibition ring was measured. Assays were performed in the same manner as in 1 above, except that the incubation temperature was changed to 37° C.

[4] = test system: Bacillus subtilis NBRC 3134^T; assay: Antibacterial spectrum test, paper disk assay; type: cell-based; details: 50 μL of 1000 γ solution in methanol, LB agar, 37° C., 18 hours
Procedure: as §3

[5] = test system: Geobacillus stearothermophilus ATCC 7953; assay: Antibacterial activity test in changing pH, paper disk assay; type: cell-based; details: 1000 γ in methanol, 50 μL on paper disk, 50° C., 18 hours
Procedure: Into a 50-mL Falcon tube, 20 mg of HK-1 was weighed out using an electric balance, and therein 20 mL of methanol (1000 γ) was added followed by gentle stirring. Each 3.3 mL was aliquoted to totally two 15-mL Falcon tubes. To one of them 20 μL of 1 N sodium hydroxide was added followed by gentle stirring. The pH was tested with a pH test paper. Ten (10) μL of each sample was subjected to HPLC. The HPLC analysis conditions are as follows. The stability of a compound is regarded as one of the important information for evaluating a substance. This is because, even if the external environment changes, insofar as the compound itself is stable, it can be applied in various situations, and the information leads to acquisition of biological knowledges. Therefore, the stability of the activity was examined by measuring antibacterial activities with respect to G. stearothermophilus, and B. subtilis using the solution prepared in the above “1. Antibacterial spectrum test”. (1) Each 10 mL of the (autoclave treated) LB culture medium (see Example 1) was dispensed into two long test tubes. (2) Into each long test tube, 50 μL of a commercially available G. stearothermophilus spore suspension was seeded. […] The culture medium was taken out from the incubator, and the diameter of the inhibition ring was measured with calipers (Kanon hardened stainless 150 mm).

[6] = pH stability by HPLC analysis; type: physicochemical; details: methanol solution 1000 γ
Procedure: Into a 50-mL Falcon tube, 20 mg of HK-1 was weighed out using an electric balance, and therein 20 mL of methanol (1000 γ) was added followed by gentle stirring. Each 3.3 mL was aliquoted to totally two 15-mL Falcon tubes. To one of them 20 μL of 1 N sodium hydroxide was added followed by gentle stirring. The pH was tested with a pH test paper. Ten (10) μL of each sample was subjected to HPLC. The HPLC analysis conditions are as follows. Column: CAPCELL PAK Cis 5 μm, 4.6 mm 1. D×150 mm Mobile phase A: 0.1% aqueous solution of trifluoroacetic acid Mobile phase B: acetonitrile Temperature of thermostatic chamber for column: 40° C. Flow velocity: 1 mL/min UV: 254 nm Elution method: concentration gradient • 0 min to 18 min, B concentration 50% to 100% • 18.1 min to 23 min, B concentration 100% • 23.1 min to 25 min, B concentration 50%

[7] = pH not adjusted, storage at −28° C., 28° C., 50° C., 1 to 24 days
[8] = two samples (pH 9, pH not adjusted), stored at −28° C., 28° C. and 50° C., after 24 days

Structure (SMILES): COc1cc(OOc2cc(OC)c3c(c2-c2c(O)c(Cl)c(C)c4c2C(O)c2c(Cl)c(O)cc(O)c2C4=O)C(OC2OC(C)C(O)C2O)c2c(Cl)c(OC)c(Cl)c(C)c2C3=O)c(-c2c(O)c(Cl)c(C)c3c2C(O)c2c(Cl)c(O)cc(O)c2C3=O)c2c1C(=O)c1c(C)c(Cl)c(OC)c(Cl)c1C2OC1OC(C)C(O)C1O (stereo not shown) [HK-1]
- difference in antibacterial activity due to the storage temperature [1, 7]: no significant difference
- antibacterial activity after storage [1, 8]: not lost
- difference in antibacterial activity due to the storage temperature [2, 7]: no significant difference
- antibacterial activity after storage [2, 8]: not lost
- inhibition ring diameter [3]: 14.0 mm
- inhibition ring diameter [4]: 32.0 mm
- inhibition ring diameter ([5]; solution with pH adjusted to 9): 22.6 mm
- inhibition ring diameter ([5]; solution with pH not adjusted): 21.9 mm
- pH stability (degradation peak in HPLC analysis) ([6]; pH adjusted to 9 with 1 N sodium hydroxide): stable with no recognizable degradation peak
- pH stability (degradation peak in HPLC analysis) ([6]; pH not adjusted): stable with no recognizable degradation peak
